Data reported in PubChem BioAssay (NCI).
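Five concentrations, 48 hours, 96-well plates. At the TGI there is no net growth.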 Where a SMILES comes first, the peptide text is derived from it. The star is where a group is joined. OBn = c1ccc(CO*)cc1

What was measured:
Experiment in all cases: NCI-60 cell line screen, 48 h
HCT-15 colon = system: HCT-15 colon
HOP-92 NSCLC = system: HOP-92 NSCLC
HT29 colon = system: HT29 colon
KM12 colon = system: KM12 colon
LOX IMVI melanoma = system: LOX IMVI melanoma
MALME-3M melanoma = system: MALME-3M melanoma
NCI-H226 lung = system: NCI-H226 lung
NCI/ADR-RES ovarian = system: NCI/ADR-RES ovarian
PC-3 prostate = system: PC-3 prostate
SW-620 colon = system: SW-620 colon
UO-31 renal = system: UO-31 renal

CCOC(=O)c1c(-c2ccccc2)[nH]c2ccc(Cl)cc2c1=O
TGI (HCT-15 colon): > 100 µM
TGI (HOP-92 NSCLC): 73.6 µM
TGI (HT29 colon): > 100 µM
TGI (KM12 colon): > 100 µM
TGI (LOX IMVI melanoma): > 100 µM
TGI (MALME-3M melanoma): > 100 µM
TGI (NCI-H226 lung): > 100 µM
TGI (NCI/ADR-RES ovarian): > 100 µM
TGI (PC-3 prostate): > 100 µM
TGI (SW-620 colon): > 100 µM
TGI (UO-31 renal): 70.8 µM

O=C(O)CCSc1nnc(COc2ccc(Cl)cc2)n1-c1ccccc1
TGI (HCT-15 colon): > 100 µM
TGI (HOP-92 NSCLC): > 100 µM
TGI (HT29 colon): > 100 µM
TGI (KM12 colon): > 100 µM
TGI (LOX IMVI melanoma): > 100 µM
TGI (MALME-3M melanoma): > 100 µM
TGI (NCI-H226 lung): > 100 µM
TGI (NCI/ADR-RES ovarian): > 100 µM
TGI (PC-3 prostate): > 100 µM
TGI (SW-620 colon): > 100 µM
TGI (UO-31 renal): > 100 µM

O=C1c2cccnc2C(=O)c2c1nc1ccccc1c2-c1cncc(-c2c3c(nc4ccccc24)C(=O)c2cccnc2C3=O)c1
TGI (HCT-15 colon): 0.414 µM
TGI (HOP-92 NSCLC): 5.93 µM
TGI (HT29 colon): 1.28 µM
TGI (KM12 colon): 2 µM
TGI (LOX IMVI melanoma): 0.449 µM
TGI (MALME-3M melanoma): 1.52 µM
TGI (NCI-H226 lung): 0.883 µM
TGI (NCI/ADR-RES ovarian): 2.1 µM
TGI (PC-3 prostate): 11 µM
TGI (SW-620 colon): 0.906 µM
TGI (UO-31 renal): 0.946 µM

O=C(/C=C/c1ccccc1)CCC1C(=O)NC(=O)NC1=O
TGI (HCT-15 colon): > 100 µM
TGI (HOP-92 NSCLC): > 100 µM
TGI (HT29 colon): > 100 µM
TGI (KM12 colon): > 100 µM
TGI (LOX IMVI melanoma): > 100 µM
TGI (MALME-3M melanoma): > 100 µM
TGI (NCI-H226 lung): > 100 µM
TGI (NCI/ADR-RES ovarian): > 100 µM
TGI (PC-3 prostate): > 100 µM
TGI (SW-620 colon): > 100 µM
TGI (UO-31 renal): > 100 µM

COC(=O)N/N=C(\C)C(CN1CCOCC1)C(c1ccccc1)c1cc2ccccc2oc1=O (stereo not given)
TGI (HCT-15 colon): > 100 µM
TGI (HOP-92 NSCLC): > 100 µM
TGI (HT29 colon): > 100 µM
TGI (KM12 colon): > 100 µM
TGI (LOX IMVI melanoma): > 100 µM
TGI (MALME-3M melanoma): > 100 µM
TGI (NCI-H226 lung): > 100 µM
TGI (NCI/ADR-RES ovarian): > 100 µM
TGI (PC-3 prostate): > 100 µM
TGI (SW-620 colon): > 100 µM
TGI (UO-31 renal): > 100 µM

COc1cc(C2S/C(=C/c3ccccc3)C(=O)N2c2ccc([N+](=O)[O-])cc2)cc(OC)c1OC (stereo not given)
TGI (HCT-15 colon): > 100 µM
TGI (HOP-92 NSCLC): > 100 µM
TGI (HT29 colon): > 100 µM
TGI (KM12 colon): > 100 µM
TGI (LOX IMVI melanoma): > 100 µM
TGI (MALME-3M melanoma): > 100 µM
TGI (NCI-H226 lung): > 100 µM
TGI (NCI/ADR-RES ovarian): > 100 µM
TGI (PC-3 prostate): > 100 µM
TGI (SW-620 colon): > 100 µM
TGI (UO-31 renal): > 100 µM

CCOC(=O)Oc1cc2c(ccn2C)c2c1c1ccccc1n2C(=O)OCC
TGI (HCT-15 colon): > 100 µM
TGI (HOP-92 NSCLC): > 100 µM
TGI (HT29 colon): > 100 µM
TGI (KM12 colon): > 100 µM
TGI (LOX IMVI melanoma): > 100 µM
TGI (MALME-3M melanoma): > 100 µM
TGI (NCI-H226 lung): > 100 µM
TGI (NCI/ADR-RES ovarian): > 100 µM
TGI (PC-3 prostate): > 100 µM
TGI (SW-620 colon): > 100 µM
TGI (UO-31 renal): > 100 µM

C/C(=C\COP(=O)(O)OP(=O)(O)O)CC/C=C(\C)CNc1ccc([N+](=O)[O-])cc1
TGI (HCT-15 colon): > 100 µM
TGI (HOP-92 NSCLC): > 100 µM
TGI (HT29 colon): > 100 µM
TGI (KM12 colon): > 100 µM
TGI (LOX IMVI melanoma): > 100 µM
TGI (MALME-3M melanoma): > 100 µM
TGI (NCI-H226 lung): > 100 µM
TGI (NCI/ADR-RES ovarian): > 100 µM
TGI (PC-3 prostate): > 100 µM
TGI (SW-620 colon): > 100 µM
TGI (UO-31 renal): > 100 µM

O=c1c2c3c(sc2nc2n1N=CN(c1ccc(Cl)cc1)C2)CCCC3
TGI (HCT-15 colon): > 100 µM
TGI (HOP-92 NSCLC): > 100 µM
TGI (HT29 colon): > 100 µM
TGI (KM12 colon): > 100 µM
TGI (LOX IMVI melanoma): > 100 µM
TGI (MALME-3M melanoma): 97.9 µM
TGI (NCI-H226 lung): > 100 µM
TGI (NCI/ADR-RES ovarian): > 100 µM
TGI (PC-3 prostate): > 100 µM
TGI (SW-620 colon): > 100 µM
TGI (UO-31 renal): > 100 µM

CC1=[N+]([O-])C(C)(C)N(O)C1(C)C
TGI (HCT-15 colon): > 100 µM
TGI (HOP-92 NSCLC): > 100 µM
TGI (HT29 colon): > 100 µM
TGI (KM12 colon): > 100 µM
TGI (LOX IMVI melanoma): > 100 µM
TGI (MALME-3M melanoma): > 100 µM
TGI (NCI-H226 lung): > 100 µM
TGI (NCI/ADR-RES ovarian): > 100 µM
TGI (PC-3 prostate): > 100 µM
TGI (SW-620 colon): > 100 µM
TGI (UO-31 renal): > 100 µM

C#C[C@]1(O)CC[C@H]2[C@@H]3CCC4=C/C(=N\OCCN5CCCC5)CC[C@]4(C)[C@H]3CC[C@@]21C
TGI (HCT-15 colon): 35 µM
TGI (HOP-92 NSCLC): > 100 µM
TGI (HT29 colon): 29.7 µM
TGI (KM12 colon): 19.6 µM
TGI (LOX IMVI melanoma): 33 µM
TGI (MALME-3M melanoma): 23.4 µM
TGI (NCI-H226 lung): 55.5 µM
TGI (NCI/ADR-RES ovarian): 31.5 µM
TGI (PC-3 prostate): 32.6 µM
TGI (SW-620 colon): > 49.5 µM
TGI (UO-31 renal): 32.9 µM

CC(C)(C)C(=O)Nc1cccc(-c2ccc[nH]2)n1
TGI (HCT-15 colon): > 100 µM
TGI (HOP-92 NSCLC): > 100 µM
TGI (HT29 colon): > 100 µM
TGI (KM12 colon): > 100 µM
TGI (LOX IMVI melanoma): > 100 µM
TGI (MALME-3M melanoma): > 100 µM
TGI (NCI-H226 lung): > 100 µM
TGI (NCI/ADR-RES ovarian): > 100 µM
TGI (PC-3 prostate): > 100 µM
TGI (SW-620 colon): > 100 µM
TGI (UO-31 renal): > 100 µM

NC(CCC(=O)OCc1ccccc1)C(=O)NC(CCC(=O)OCc1ccccc1)C(=O)O (stereo not given) (H-Glu(OBn)-Glu(OBn)-OH; configuration not given here)
TGI (HCT-15 colon): > 100 µM
TGI (HOP-92 NSCLC): > 100 µM
TGI (HT29 colon): > 100 µM
TGI (KM12 colon): > 100 µM
TGI (LOX IMVI melanoma): > 100 µM
TGI (MALME-3M melanoma): > 100 µM
TGI (NCI-H226 lung): > 100 µM
TGI (NCI/ADR-RES ovarian): > 100 µM
TGI (PC-3 prostate): > 100 µM
TGI (SW-620 colon): > 100 µM
TGI (UO-31 renal): > 100 µM

O=c1[nH]n(Cc2ccccc2CCl)c2ccc([N+](=O)[O-])cc12
TGI (HCT-15 colon): > 100 µM
TGI (HOP-92 NSCLC): > 100 µM
TGI (HT29 colon): > 100 µM
TGI (KM12 colon): > 100 µM
TGI (LOX IMVI melanoma): > 100 µM
TGI (MALME-3M melanoma): > 100 µM
TGI (NCI-H226 lung): > 100 µM
TGI (NCI/ADR-RES ovarian): > 100 µM
TGI (PC-3 prostate): > 100 µM
TGI (SW-620 colon): > 100 µM
TGI (UO-31 renal): > 100 µM

COc1cc(/C=N/NC2=NCCCN2)ccc1O
TGI (HCT-15 colon): > 100 µM
TGI (HOP-92 NSCLC): > 100 µM
TGI (HT29 colon): > 100 µM
TGI (KM12 colon): > 100 µM
TGI (LOX IMVI melanoma): > 100 µM
TGI (MALME-3M melanoma): > 100 µM
TGI (NCI-H226 lung): > 100 µM
TGI (NCI/ADR-RES ovarian): > 100 µM
TGI (PC-3 prostate): > 100 µM
TGI (SW-620 colon): > 100 µM
TGI (UO-31 renal): > 100 µM

COC(=O)/C(C#N)=C(\Nc1ccccc1)N1CCCCC1
TGI (HCT-15 colon): > 100 µM
TGI (HOP-92 NSCLC): > 100 µM
TGI (HT29 colon): > 100 µM
TGI (LOX IMVI melanoma): > 100 µM
TGI (MALME-3M melanoma): > 100 µM
TGI (NCI-H226 lung): > 100 µM
TGI (NCI/ADR-RES ovarian): > 100 µM
TGI (PC-3 prostate): > 100 µM
TGI (SW-620 colon): > 100 µM
TGI (UO-31 renal): > 100 µM
